Data: US20200361871A1 (Enterprise Therapeutics Ltd., priority 2018, published 2020)

Molecular target: human TMEM16A (TMEM16Aabc variant) (Homo sapiens, UniProt Q5XXA6, DEL476-501, form not given)
Assay: Automated whole-cell patch clamp (Qpatch) TMEM16A potentiator assay in FRT cells stably expressing human TMEM16A
Assay type: cell-based
Conditions: for % Potentiation @ 3.33 μM Avg: 3.33 μM solution of test compound, percentage increase of baseline TMEM16A current; for EC50: calculated EC50, Qpatch TMEM16A current at +70 mV
Outline: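 Potentiation was read as the rise in peak +70 mV current over baseline (%), from cumulative 5-min additions of compound. Recordings used whole-cell automated patch of FRT cells stably carrying human TMEM16Aabc, with pipette Ca2+ buffered to give ~20% maximal current. EC50 and efficacy came from concentration-response fits.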

Chain of human TMEM16A (TMEM16Aabc variant) (Q5XXA6 with tags, fused parts or gaps DEL476-501): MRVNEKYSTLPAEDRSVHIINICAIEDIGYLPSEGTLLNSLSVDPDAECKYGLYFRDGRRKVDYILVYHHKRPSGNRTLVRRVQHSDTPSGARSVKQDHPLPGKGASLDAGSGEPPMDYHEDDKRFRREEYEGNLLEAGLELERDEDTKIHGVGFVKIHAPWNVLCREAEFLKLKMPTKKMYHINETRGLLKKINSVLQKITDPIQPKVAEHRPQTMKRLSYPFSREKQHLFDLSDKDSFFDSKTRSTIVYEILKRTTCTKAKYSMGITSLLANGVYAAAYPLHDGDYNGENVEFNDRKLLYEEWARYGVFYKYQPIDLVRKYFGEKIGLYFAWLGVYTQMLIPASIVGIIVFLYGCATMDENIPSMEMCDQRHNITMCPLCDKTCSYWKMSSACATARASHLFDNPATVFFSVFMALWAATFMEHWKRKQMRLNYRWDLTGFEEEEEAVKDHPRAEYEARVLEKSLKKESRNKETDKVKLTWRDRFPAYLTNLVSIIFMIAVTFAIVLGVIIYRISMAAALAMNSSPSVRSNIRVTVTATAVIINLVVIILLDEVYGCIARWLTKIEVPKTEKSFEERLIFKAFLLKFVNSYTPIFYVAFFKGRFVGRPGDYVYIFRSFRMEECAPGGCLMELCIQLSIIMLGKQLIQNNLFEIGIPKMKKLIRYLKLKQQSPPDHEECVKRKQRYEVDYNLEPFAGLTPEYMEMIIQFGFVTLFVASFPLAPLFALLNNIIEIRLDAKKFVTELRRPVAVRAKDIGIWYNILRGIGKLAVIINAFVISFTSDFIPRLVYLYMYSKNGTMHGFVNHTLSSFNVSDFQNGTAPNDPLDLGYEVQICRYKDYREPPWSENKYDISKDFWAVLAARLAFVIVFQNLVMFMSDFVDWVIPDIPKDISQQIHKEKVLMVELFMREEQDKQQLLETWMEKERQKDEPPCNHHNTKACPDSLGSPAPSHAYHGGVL

Row | SMILES | % Potentiation @ 3.33 μM Avg [%] | EC50 [nM]
1 | C#CC(C)(C)NC(=O)c1cc(NC(=O)CC(C)(C)C)ccn1 [Example 22.1, 4-(3,3-Dimethylbutanoylamino)-N-(1,1-dimethylprop-2-ynyl)pyridine-2-carboxamide] | 114 | –
2 | C#CC(C)(C)NC(=O)c1cc(NC(=O)CC2CCCC2)ccn1 [Example 22.2, 4-[(2-Cyclopentylacetyl)amino]-N-(1,1-dimethylprop-2-ynyl)pyridine-2-carboxamide] | 157 | 260
3 | C#CC(C)(C)NC(=O)c1cc(NC(=O)Cc2ccncc2Cl)ccn1 [Example 22.3, 4-[[2-(3-Chloro-4-pyridyl)acetyl]amino]-N-(1,1-dimethylprop-2-ynyl)pyridine-2-carboxamide] | 132 | –
4 | N#CC1(NC(=O)c2cc(NC(=O)Cc3ccc(Cl)cc3)ccn2)CC1 [Example 23, 4-[[2-(4-Chlorophenyl)acetyl]amino]-N-(1-cyanocyclopropyl)pyridine-2-carboxamide] | 93 | –
5 | N#CC1(NC(=O)c2cc(NC(=O)Cc3cccc(Cl)c3)ccn2)CC1 [Example 23.1, 4-[[2-(3-Chlorophenyl)acetyl]amino]-N-(1-cyanocyclopropyl)pyridine-2-carboxamide] | 150 | –
6 | N#CC1(NC(=O)c2cc(NC(=O)Cc3cc(F)ccc3Cl)ccn2)CC1 [Example 23.2, 4-[[2-(2-Chloro-5-fluoro-phenyl)acetyl]amino]-N-(1-cyanocyclopropyl)pyridine-2-carboxamide] | 87 | –
7 | CC(C)(C)NC(=O)c1cc(NC(=O)C2Cc3ccccc3C2)ccn1 [Example 23.3, N-tert-Butyl-4-(indane-2-carbonylamino)pyridine-2-carboxamide] | 59 | 470
8 | CC(C)(C)NC(=O)c1cc(NC(=O)Cc2ccccc2OC(F)F)ccn1 [Example 23.4, N-tert-Butyl-4-[[2-[2-(difluoromethoxy)phenyl]acetyl]amino]pyridine-2-carboxamide] | 115 | –
9 | CC(C)(C)NC(=O)c1cc(NC(=O)Cc2ccccc2C(F)F)ccn1 [Example 23.5, N-tert-Butyl-4-[[2-[2-(difluoromethyl)phenyl]acetyl]amino]pyridine-2-carboxamide] | 110 | –
10 | CC(C)(C)NC(=O)c1cc(NC(=O)Cc2ccc(F)c(F)c2)ccn1 [Example 23.6, N-tert-Butyl-4-[[2-(3,4-difluorophenyl)acetyl]amino]pyridine-2-carboxamide] | 108 | –
11 | CC(C)(C)NC(=O)c1cc(NC(=O)Cc2cc(F)cc(F)c2)ccn1 [Example 23.7, N-tert-Butyl-4-[[2-(3,5-difluorophenyl)acetyl]amino]pyridine-2-carboxamide] | 98 | –
12 | CC(C)(C)NC(=O)c1cc(NC(=O)Cc2cccc(F)c2F)ccn1 [Example 23.8, N-tert-Butyl-4-[[2-(2,3-difluorophenyl)acetyl]amino]pyridine-2-carboxamide] | 122 | –
13 | O=C(Cc1ccccc1Cl)Nc1ccnc(C(=O)NC2CCOCC2)c1 [Example 23.9, 4-[[2-(2-Chlorophenyl)acetyl]amino]-N-tetrahydropyran-4-yl-pyridine-2-carboxamide] | 47 | –
14 | N#CC1(NC(=O)c2cc(NC(=O)Cc3ccc4ncccc4c3)ccn2)CCC1 [Example 23.11, N-(1-Cyanocyclobutyl)-4-[[2-(6-quinolyl)acetyl]amino]pyridine-2-carboxamide] | 101 | –
15 | CC(C)(C)NC(=O)c1cc(NC(=O)Cc2ccccc2C(F)(F)F)ccn1 [Example 23.12, N-tert-Butyl-4-[[2-[2-(trifluoromethyl)phenyl]acetyl]amino]pyridine-2-carboxamide] | 197 | 330
16 | CC(C)(C)NC(=O)c1cc(NC(=O)Cc2ccccc2Br)ccn1 [Example 23.13, 4-[[2-(2-bromophenyl)acetyl]amino]-N-tert-butyl-pyridine-2-carboxamide] | 169 | 570
17 | CC(C)(C)NC(=O)c1cc(NC(=O)Cc2ccccc2C#N)ccn1 [Example 23.14, N-tert-Butyl-4-[[2-(2-cyanophenyl)acetyl]amino]pyridine-2-carboxamide] | 33 | –
18 | N#CC1(NC(=O)c2cc(NC(=O)Cc3ccccc3Cl)ccn2)CCOCC1 [Example 23.15, 4-[[2-(2-Chlorophenyl)acetyl]amino]-N-(4-cyanotetrahydropyran-4-yl)pyridine-2-carboxamide] | 147 | 1190
19 | N#CC1(NC(=O)c2cc(NC(=O)Cc3ccc4ncccc4c3)ccn2)CCOCC1 [Example 23.16, N-(4-Cyanotetrahydropyran-4-yl)-4-[[2-(6-quinolyl)acetyl]amino]pyridine-2-carboxamide] | 68 | 1400
20 | COc1ccc(Cl)c(CC(=O)Nc2ccnc(C(=O)NC3(C#N)CC3)c2)c1 [Example 24, 4-[[2-(2-Chloro-5-methoxy-phenyl)acetyl]amino]-N-(1-cyanocyclopropyl)pyridine-2-carboxamide] | 68 | –
21 | CC(C)(C)c1ccc(O)c(CC(=O)Nc2ccnc(C(=O)NC34CC(C3)C4)c2)c1 [Example 25, N-(3-Bicyclo[1.1.1]pentanyl)-4-[[2-(5-tert-butyl-2-hydroxy-phenyl)acetyl]amino] pyridine-2-carboxamide] | 330 | 370
22 | CC(C)(C)c1ccc(O)c(CC(=O)Nc2ccnc(C(=O)NC3(C#N)CCOCC3)c2)c1 [Example 25.1, 4-[[2-(5-tert-Butyl-2-hydroxy-phenyl)acetyl]amino]-N-(4-cyanotetrahydropyran-4-yl)pyridine-2-carboxamide] | 393 | 140
23 | CC(C)(C)NC(=O)c1cc(NC(=O)Cc2cc(-c3ccccc3)ccc2O)ccn1 [Example 26, N-tert-Butyl-4-[[2-(2-hydroxy-5-phenyl-phenyl)acetyl]amino]pyridine-2-carboxamide] | 108 | –
24 | CC(C)(C)NC(=O)c1cc(NC(=O)Cc2cc(Cl)c(CN3CCCC3)cc2O)ccn1 [Example 27, N-tert-Butyl-4-[[2-[5-chloro-2-hydroxy-4-(pyrrolidin-1-ylmethyl)phenyl]acetyl]amino]pyridine-2-carboxamide] | 90 | –
25 | CC(C)(C)NCc1cc(O)c(CC(=O)Nc2ccnc(C(=O)NC(C)(C)C)c2)cc1Cl [Example 27.1, N-tert-Butyl-4-[[2-[4-[(tert-butylamino)methyl]-5-chloro-2-hydroxy-phenyl]acetyl]amino]pyridine-2-carboxamide] | 52 | –
26 | CC(C)(C)NC(=O)c1cc(NC(=O)Cc2cc(Cl)c(CN3CCOCC3)cc2O)ccn1 [Example 27.2, N-tert-Butyl-4-[[2-[5-chloro-2-hydroxy-4-(morpholinomethyl)phenyl]acetyl]amino]pyridine-2-carboxamide] | 300 | –
27 | CC(C)(C)NC(=O)c1cc(NC(=O)Cc2cc(Cl)c(CN3CCC(F)(F)C3)cc2O)ccn1 [Example 27.3, N-tert-Butyl-4-[[2-[5-chloro-4-[(3,3-difluoropyrrolidin-1-yl)methyl]-2-hydroxy-phenyl]acetyl]amino]pyridine-2-carboxamide] | 166 | 290
